Legend:
NS3h_1b(con1) = target: T1, NS3h_1b(con1) (Hepatitis C virus genotype 1b, UniProt Q9WMX2); assay: RNA-stimulated ATP hydrolysis, pH 7.5, HCV; assay type: biochemical, hepatitis C virus genotype 1b(con1)
T1 construct: truncated C-terminally His-tagged NS3 proteins lacking the N-terminal protease, called NS3h; His-tag (C); made in house
Description: (§1) To compare the effect of compounds on HCV NS3h_1b (con1) to NS3h_DV2, reactions were performed with 2 nM of either enzyme in 25 mM Tris pH 7.5, 1.25 mM MgCl2, 1.0 mM ATP, 10% DMSO, 5 μg/ml BSA, 0.01% (v/v) TWEEN 20, 0.05 mM DTT, and 10 μM poly(U) RNA at 37° C.
To further profile compound specificity, it was determined whether the compounds would inhibit homologous NS3h expressed by the Dengue virus (NS3h_DV2). […] The same assays were also repeated with HCV NS3h_1b(con1) for comparison. […] However, most of the primuline derivatives were relatively potent inhibitors of RNA-stimulated ATP hydrolysis catalyzed by the Dengue enzyme under the same conditions.

scNS4A-NS3p = target: T2, scNS4A-NS3p (UniProt P26663); assay: NS3 protease assay (ENZOLYTE 520), protease fragment; assay type: biochemical, hepatitis C virus genotype 1b; settings: read-out: Protease ScNS4a-NS3p IC50 (μM) ± SD; one set of assays
T2 construct: fused on or other part: NS4A cofactor peptide, from the same polyprotein, fused to the NS3 protease fragment
Description: (§2) All oligonucleotides were purchased from Integrated DNA Technologies (IDT, Coralville, Iowa). Primuline derivatives were synthesized and purified as described herein. Three different NS3 proteins were used in this study. Two were truncated C-terminally His-tagged NS3 proteins lacking the N-terminal protease, called NS3h, the third was a full-length NS3 with the portion of NS4A needed for protease activation fused to its N-terminus, called scNS4A-NS3 (Howe, et al. (1999) Protein Sci. 8:1332-41), and the fourth was a 23 kDa scNS4A-NS3 protease fragment lacking the helicase domains, called scNS4A-NS3p (Protein One, Rockville, Md.). NS3h was expressed from two different HCV strains. NS3h_1b(con1) was from the con1 strain of genotype 1b (GENBANK accession AB114136), and NS3h_2a(JFH1) was from the JFH1 strain of HCV genotype 2a (GENBANK accession AJ238799). […] His-tagged recombinant NS3h_1b(con1), NS3h_2a(JFH1), and scNS4A-NS3 (also from genotype 1b(con1)) were expressed, and purified as previously described (Frick, et al. (2010) supra; Lam, et al. (2003) J. Virol. 77:3950-3961). The scNS4A-NS3p (genotype 1b) was from Protein One. A plasmid expressing NS3h from dengue virus strain 2 (NS3h_DV2)(GENBANK accession 2BMF) is known in the art (Xu, et al. (2005) J. Virol. 79:10278-10288), and used to express and purify NS3h_DV2 (Belon, et al. (2010) supra)
(§3) All NS3 protease assays were carried out using the 5-Carboxyfluorescein-labeled substrate from the AnaSpec. ENZOLYTE 520 Protease Assay Kit (AnaSpec, San Jose, Calif.). Each assay contained 5 nM scNS4A-NS3 or 50 nM scNS4A-NS3p, […], 5% DMSO and 1× Anaspec HCV protease assay buffer. Assays were carried out in a total volume of 20 μl in black 384-well plates with fluorescence at 520 nm measured using a BMG FLUOstar Omega fluorescence spectrophotometer. Reactions were performed with eight concentrations of a two-fold dilution series of each compound (in duplicate) starting at 100 μM.

NS3h_2a = target: T3, NS3h_2a (Hepatitis C virus genotype 2a, UniProt Q99IB8); assay: RNA helicase assay (three-stranded RNA substrate); assay type: biochemical, hepatitis C virus genotype 2a(JFH1)
T3 construct: truncated C-terminally His-tagged NS3 proteins lacking the N-terminal protease, called NS3h; His-tag (C); made in house
Description: To act as antivirals in cells, it is also important for an HCV helicase inhibitor to inhibit the activity of the NS3h on RNA. […] As with protein specificity, no differences were uncovered regarding substrate specificity for any of the compounds tested. In other words, none of the compounds preferred to act either on DNA or RNA substrates.

NS3h_DV2 = target: T4, NS3h_DV2 (Dengue virus type 2, UniProt P29990); assay: RNA-stimulated ATP hydrolysis, pH 7.5, Dengue; assay type: biochemical; settings: 10 μM poly(U) RNA, read-out: ATPase w/RNA NS3h_DV2 IC50 (μM) ± SD
T4 construct: made in house
Description: as §1
To further profile compound specificity, it was determined whether the compounds would inhibit homologous NS3h expressed by the Dengue virus (NS3h_DV2). […] The same assays were also repeated with HCV NS3h_1b(con1) for comparison.

scNS4A-NS3 = scNS4A-NS3 (Hepatitis C virus genotype 1b, UniProt Q9WMX2); assay: NS3 protease assay (ENZOLYTE 520), full-length; assay type: biochemical, hepatitis C virus genotype 1b(con1); set-up: other: average of two sets; There is also a His tag
Description: as §2, §3

NS3h_1b = target: T5, NS3h_1b (Hepatitis C virus genotype 1b, UniProt Q9WMX2); assay: ATPase assay without RNA; assay type: biochemical, hepatitis C virus genotype 1b(con1)
T5 construct: truncated C-terminally His-tagged NS3 proteins lacking the N-terminal protease, called NS3h; His-tag (C); made in house
Description: A modified “malachite green” assay (Lanzetta, et al. (1979) Anal. Biochem. 100:95-97) was used to measure ATP hydrolysis. Fifty μL reactions contained 25 mM MOPS pH 6.5, 5 mM MgCl2, 2 mM ATP, 5 μg/mL BSA, 0.01% (v/v) TWEEN 20, 0.05 mM DTT, and poly(U) RNA (Saint Louis, Mo.) as indicated. Reactions were initiated by adding NS3h_1b(con1). Reactions were incubated for 15 minutes at 37° C. then stopped by mixing 40 μL of the reaction into 200 μL of the malachite green reagent (3 volumes 0.045% (w/v) malachite green, 1 volume 4.2% ammonium molybdate in 4N HCl, 0.05 volume of 20% TWEEN 20). […] Absorbance at 630 nm was proportional to the concentration of phosphate produced; free phosphate produced was measured against a standard curve.
A simple explanation for the ability of some of the primuline derivatives to inhibit helicase and protease with similar potency would be that the compounds acted by simply aggregating or denaturing the enzyme. To test for irreversible inhibition, NS3h was incubated with 100 μM of each compound, diluted and then assayed for its ability to unwind DNA under standard conditions. […] In a second test for a simple aggregation mechanism, each compound was tested for its ability to inhibit NS3-catalyzed ATP hydrolysis. ATP hydrolysis fuels the unwinding reaction and NS3 hydrolyzes ATP both in the presence and absence of DNA or RNA; nucleic acid stimulates NS3 catalyzed ATP hydrolysis about 50-fold. […] To test this hypothesis, ATPase assays were performed in the presence of various concentrations of each primuline derivative, under conditions similar to those used to monitor effects on DNA and RNA unwinding. Far more of each compound was needed to inhibit NS3-catalyzed ATP hydrolysis than was needed to inhibit the helicase activity, or, in some cases, NS3 protease activity (Table 11).

T5 sequence (Q9WMX2 1192-1657): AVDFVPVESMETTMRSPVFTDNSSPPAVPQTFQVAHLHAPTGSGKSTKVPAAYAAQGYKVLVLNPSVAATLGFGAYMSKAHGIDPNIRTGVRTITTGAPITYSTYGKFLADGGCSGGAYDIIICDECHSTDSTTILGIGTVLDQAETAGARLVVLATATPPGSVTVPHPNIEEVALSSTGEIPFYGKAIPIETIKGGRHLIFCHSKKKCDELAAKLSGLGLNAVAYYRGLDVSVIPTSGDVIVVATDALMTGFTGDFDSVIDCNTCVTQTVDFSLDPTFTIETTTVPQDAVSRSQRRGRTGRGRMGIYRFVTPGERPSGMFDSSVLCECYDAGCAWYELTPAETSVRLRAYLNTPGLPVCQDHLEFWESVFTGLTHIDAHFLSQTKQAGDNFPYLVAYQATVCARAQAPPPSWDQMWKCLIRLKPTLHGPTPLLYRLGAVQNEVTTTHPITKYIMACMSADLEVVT
T1 sequence (Q9WMX2 1192-1657): as above
T3 sequence (Q99IB8 1196-1661): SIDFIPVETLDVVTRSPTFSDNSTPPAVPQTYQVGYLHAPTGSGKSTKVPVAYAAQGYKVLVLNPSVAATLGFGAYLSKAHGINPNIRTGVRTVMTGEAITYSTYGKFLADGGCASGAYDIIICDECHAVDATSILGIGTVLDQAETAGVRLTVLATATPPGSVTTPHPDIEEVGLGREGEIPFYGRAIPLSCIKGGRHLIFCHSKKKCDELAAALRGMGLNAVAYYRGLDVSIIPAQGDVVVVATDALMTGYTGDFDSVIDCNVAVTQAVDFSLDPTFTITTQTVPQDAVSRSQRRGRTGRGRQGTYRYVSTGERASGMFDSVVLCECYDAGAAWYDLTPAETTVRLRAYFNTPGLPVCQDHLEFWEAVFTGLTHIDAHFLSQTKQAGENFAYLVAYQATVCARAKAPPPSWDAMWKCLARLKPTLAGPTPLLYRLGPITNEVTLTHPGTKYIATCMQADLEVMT
T2 sequence (P26663 1027-1657): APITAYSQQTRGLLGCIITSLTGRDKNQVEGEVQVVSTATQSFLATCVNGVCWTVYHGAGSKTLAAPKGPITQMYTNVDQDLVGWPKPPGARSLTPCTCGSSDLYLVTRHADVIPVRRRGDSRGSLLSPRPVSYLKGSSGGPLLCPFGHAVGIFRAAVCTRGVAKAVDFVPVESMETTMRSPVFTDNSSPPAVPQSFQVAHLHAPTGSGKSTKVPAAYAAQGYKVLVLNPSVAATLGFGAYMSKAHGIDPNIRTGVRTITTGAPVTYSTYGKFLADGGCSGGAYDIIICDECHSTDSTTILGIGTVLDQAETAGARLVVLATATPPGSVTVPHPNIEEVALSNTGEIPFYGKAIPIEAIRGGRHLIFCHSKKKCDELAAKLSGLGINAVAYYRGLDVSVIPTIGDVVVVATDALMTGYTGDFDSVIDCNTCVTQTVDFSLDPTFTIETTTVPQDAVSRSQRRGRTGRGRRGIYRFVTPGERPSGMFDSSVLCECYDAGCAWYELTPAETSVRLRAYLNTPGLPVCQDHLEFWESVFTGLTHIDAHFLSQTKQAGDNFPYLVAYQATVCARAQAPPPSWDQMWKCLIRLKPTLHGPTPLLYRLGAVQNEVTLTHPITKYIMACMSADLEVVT
Chain of scNS4A-NS3 (Q9WMX2 1027-1657): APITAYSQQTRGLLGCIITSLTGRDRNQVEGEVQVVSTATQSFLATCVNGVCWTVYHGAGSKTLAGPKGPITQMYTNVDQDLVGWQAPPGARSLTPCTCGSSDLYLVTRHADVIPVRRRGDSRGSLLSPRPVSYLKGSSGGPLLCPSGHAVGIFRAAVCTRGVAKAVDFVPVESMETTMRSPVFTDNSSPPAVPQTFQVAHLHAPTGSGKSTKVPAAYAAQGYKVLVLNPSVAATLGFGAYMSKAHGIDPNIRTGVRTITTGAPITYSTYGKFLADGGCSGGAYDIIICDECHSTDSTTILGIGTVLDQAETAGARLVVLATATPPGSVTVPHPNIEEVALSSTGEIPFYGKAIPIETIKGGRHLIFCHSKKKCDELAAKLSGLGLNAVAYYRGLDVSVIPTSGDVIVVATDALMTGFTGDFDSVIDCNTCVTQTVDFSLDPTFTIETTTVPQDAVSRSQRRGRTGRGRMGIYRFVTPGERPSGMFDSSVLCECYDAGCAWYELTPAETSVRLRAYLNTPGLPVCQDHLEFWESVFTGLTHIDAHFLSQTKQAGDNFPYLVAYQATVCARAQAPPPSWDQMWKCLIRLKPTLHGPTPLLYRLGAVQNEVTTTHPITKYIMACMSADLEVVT
T4 sequence (P29990 1646-2093): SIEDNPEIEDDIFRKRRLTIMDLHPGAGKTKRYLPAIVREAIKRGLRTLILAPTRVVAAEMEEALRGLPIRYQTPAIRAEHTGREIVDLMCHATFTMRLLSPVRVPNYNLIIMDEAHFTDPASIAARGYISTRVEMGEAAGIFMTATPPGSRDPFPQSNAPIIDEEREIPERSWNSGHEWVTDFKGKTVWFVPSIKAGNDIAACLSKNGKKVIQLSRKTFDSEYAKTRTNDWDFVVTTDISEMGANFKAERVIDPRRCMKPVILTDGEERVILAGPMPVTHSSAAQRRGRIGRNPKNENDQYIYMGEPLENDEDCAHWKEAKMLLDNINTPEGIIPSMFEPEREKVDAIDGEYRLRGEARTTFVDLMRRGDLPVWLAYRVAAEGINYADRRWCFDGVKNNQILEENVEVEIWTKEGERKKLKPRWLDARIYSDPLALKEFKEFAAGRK

SMILES | IC50 (NS3h_1b(con1)) [µM] | IC50 (scNS4A-NS3p) [µM] | IC50 (NS3h_2a) [µM] | IC50 (NS3h_DV2) [µM] | IC50 (scNS4A-NS3) [µM] | IC50 (NS3h_1b) [µM]
Cc1ccc2nc(-c3ccc4nc(-c5ccc(NC(=O)c6ccc(C(F)(F)F)cc6)cc5)sc4c3)sc2c1S(=O)(=O)O [Compound 12, 6-methyl-2′-(4-(4-(trifluoromethyl)benzamido)phenyl)-[2,6′-bibenzo[d]thiazole]-7-sulfonic acid] | 16 ± 5 | 7 | 3 ± 1 | 2 ± 0.5 | 5 ± 1 | 24 ± 5
Cc1ccc2nc(-c3ccc4nc(-c5ccc(NC(=O)c6ccc(F)cc6)cc5)sc4c3)sc2c1S(=O)(=O)O.N [Compound 7, 2′-(4-(4-fluorobenzamido)phenyl)-6-methyl-[2, bibenzo[d]thiazole]-7-sulfonic acid] | 73 ± 13 | > 100 | 4 ± 2 | 6 ± 1 | 89 ± 47 | 67 ± 30
Cc1ccc2nc(-c3ccc4nc(-c5ccc(N)cc5)sc4c3)sc2c1S(=O)(=O)O [Compound P2a, 2′-(4-aminophenyl)-6-methyl-[2,6′-bibenzo[d]thiazole]-7-sulfonic acid] | > 200 | > 100 | 32 ± 14 | 32 ± 17 | > 100 | > 200
Cc1ccc2nc(-c3ccc4nc(-c5ccc(NC(=O)c6ccc(C(C)(C)C)cc6)cc5)sc4c3)sc2c1S(=O)(=O)O [Compound 13, 2′-(4-(4-(tert-butyl)benzamido)phenyl)-6-methyl-[2,6′-bibenzo[d]thiazole]-7-sulfonic acid] | 150 ± 40 | 93 | 9 ± 9 | 8 ± 1 | 56 ± 23 | 150 ± 21
Cc1ccc2nc(-c3ccc4nc(-c5ccc6nc(-c7ccc8nc(-c9ccc(N)cc9)sc8c7)sc6c5)sc4c3)sc2c1S(=O)(=O)O [Compound P4, 2′″-(4-aminophenyl)-6-methyl-[2,6′:2″,6′″-quaterbenzo[d]thiazole]-7-sulfonic acid] |  | 4.9 | 3 ± 1.3 | 0.94 ± 0.7 | 2 ± 1 | 43 ± 10
Cc1ccc2nc(-c3ccc4nc(-c5ccc(NC(=O)c6ccc7nc(-c8ccc(N)cc8)sc7c6)cc5)sc4c3)sc2c1S(=O)(=O)O [Compound 35, 2′-(4-(2-(4-aminophenyl)benzo[d]thiazole-6-carboxamido)phenyl)-6-methyl-[2,6′-bibenzo[d]thiazole]-7-sulfonic acid] | 150 ± 2 | 20 | 6 ± 5.4 |  | 7 ± 1 | > 200
Cc1ccc2nc(-c3ccc4nc(-c5ccc(NC(=O)c6cc(C(F)(F)F)ccc6F)cc5)sc4c3)sc2c1S(=O)(=O)O [Compound 25, 2′-(4-(2-fluoro-5-(trifluoromethyl)benzamido)phenyl)-6-methyl-[2,6′-bibenzo[d]thiazole]-7-sulfonic acid] | 19 ± 2 | > 100 | 10 ± 3 | 7 ± 0.1 | 51 ± 25 | 61 ± 13
Cc1ccc2nc(-c3ccc4nc(-c5ccc(NC(=O)c6cc(C(F)(F)F)cc(C(F)(F)F)c6)cc5)sc4c3)sc2c1S(=O)(=O)O [Compound 24, 2′-(4-(3,5-bis(trifluoromethyl)benzamido)phenyl)-6-methyl-[2,6′-bibenzo[d]thiazole]-7-sulfonic acid] | > 200 | 7.6 | 14 ± 13 | 11 ± 2 | 23 ± 15 | 141 ± 28
Cc1ccc2nc(-c3ccc4nc(-c5ccc(NC(=O)c6ccc(Br)cc6)cc5)sc4c3)sc2c1S(=O)(=O)O [Compound 15, 2′-(4-(4-bromobenzamido)phenyl)-6-methyl-[2,6′-bibenzo[d]thiazole]-7-sulfonic acid] | 21 ± 1 | 6.5 | 4 ± 2 | 3 ± 0.8 | 6 ± 1 | 50 ± 4
Cc1ccc2nc(-c3ccc4nc(-c5ccc(NC(=O)c6cccc(Cl)c6)cc5)sc4c3)sc2c1S(=O)(=O)O [Compound 17, 2′-(4-(3-chlorobenzamido)phenyl)-6-methyl-[2,6′-bibenzo[d]thiazole]-7-sulfonic acid] | 51 ± 3 | 24 | 6 ± 3.1 | 4 ± 0.6 | > 100 | 74 ± 7
Cc1ccc2nc(-c3ccc4nc(-c5ccc(NC(=O)c6ccc(Cl)c(Cl)c6)cc5)sc4c3)sc2c1S(=O)(=O)O [Compound 18, 2′-(4-(3,4-dichlorobenzamido)phenyl)-6-methyl-[2,6′-bibenzo[d]thiazole]-7-sulfonic acid] | 72 ± 13 | 6.4 | 4 ± 2 | 4 ± 1 | 13 ± 4 | 44 ± 12
Cc1ccc2nc(-c3ccc4nc(-c5ccc(NC(=O)c6ccc(N)cc6)cc5)sc4c3)sc2c1S(=O)(=O)O [Compound 6, 2′-(4-(4-aminobenzamido)phenyl)-6-methyl-[2,6′-bibenzo[d]thiazole]-7-sulfonic acid] | 140 ± 3 |  | 7 ± 3 | 12 ± 4 | 39 ± 17 | 194 ± 30
Cc1ccc2nc(-c3ccc4nc(-c5ccc(NC(=O)c6ccc7ccccc7c6)cc5)sc4c3)sc2c1S(=O)(=O)O [Compound 33, 2′-(4-(2-naphthamido)phenyl)-6-methyl-[2,6′-bibenzo[d]thiazole]-7-sulfonic acid] | 52 ± 6 | > 100 | 3 ± 2 | 3 ± 1 | > 100 | 30 ± 6

— patent US9464064B2, “HCV helicase inhibitors and methods of use thereof” (University of Kansas, priority 2011, dated 2016)
